Entries after “also recorded” stand apart in the source; their conditions may differ.

The test system of the assay is Line 61 transgenic mice. Nature of the assay: Round beam traversal test (composite gait score), 3-month administration study. The class given is in vivo, mouse. The conditions noted are these: for round beam composite score, Kruskal-Wallis mean rank: Line 61 tg, Line 61 tg/Vehicle 6.611, Non-tg/Vehicle 34.25. From the text:
A transgenic mouse model of Parkinson’s disease overexpressing human wild-type ASYN under the murine Thy-1 promoter on a mixed C57Bl/6 background was used in the present studies (commonly referred to Line 61)[49]. The Line 61 transgenic mouse model of Parkinson’s disease develops extensive accumulation of ASYN in areas relevant to Parkinson’s disease[49]–[51], neurodegeneration (as evidenced by loss of tyrosine hydroxylase[52],[53] and dopamine transporter immunoreactivity[18] in the striatum), inflammation, and both motor and non-motor functional deficits. Multiple cohorts of mice were transferred from the University of California, San Diego to a Neuropore-funded AAALAC-accredited vivarium facility per a laboratory service agreement between Neuropore Therapies, Inc. and the laboratory of Dr. Eliezer Masliah under institutional animal care and use committee (IACUC) Protocol S02221. All in vivo testing was conducted by Neuropore personnel under Explora Biosciences animal care and use protocol (ACUP) number E15-016-2. Three-month-old male transgenic and age-matched non-transgenic littermate control mice were used and housed up to 5 per cage. Animals received free access to food and water prior to the experiment. The vivarium ambient room temperature was monitored daily and kept within a range of 68–72 degrees Fahrenheit. […]
Line 61 transgenic mice have robust and visually apparent deficits in gait as evaluated in the round beam traversal test by 6 months of age that are improved by treatment with small molecule compounds including ASYN misfolding inhibitors[17],[18] and the molecular tweezer compound CLR01[56]. […] Videotapes were then scored by a secondary evaluator using a newly developed composite rating system for specific observed features of Line 61 gait during the round beam assessment. […] Scores were analyzed by nonparametric Kruskal–Wallis one-way ANOVA with key comparisons defined a priori, first to test for a phenotypic difference between vehicle-treated groups and then to test for minzasolmin-related treatment effects in Line 61 transgenic mice. […]

As to `CCCC[C@H](Cc1c[nH]c2ccccc12)NC(=O)c1cnc(N2CCN(C)CC2)s1` [minzasolmin], for the setting “1 mg/kg, after 70 days of treatment, P < 0.01”, the “effect on round beam composite score (gait) vs vehicle-treated Line 61 transgenic mice” value is “improved; also recorded: attenuated”. Moreover, the “round beam composite score, Kruskal-Wallis mean rank” value is given as 21.77 (1 mg/kg) and 16.80 (5 mg/kg).

For the origin of these results see paper PMC10352257, “In vivo effects of the alpha-synuclein misfolding inhibitor minzasolmin supports clinical development in Parkinson’s disease” (NPJ Parkinson's Disease, 2023).
